In patent US10239861B2, “Therapeutic compounds and uses thereof” (GENENTECH, INC., priority 2015, dated 2019):

Target: PCAF bromodomain (His/Flag epitope tagged PCAF719-832) (Homo sapiens (Human), UniProt Q92831)
Assay: PCAF AlphaLisa binding assay
Conditions: AlphaLisa; PCAF bromodomain 225 nM, biotinylated small molecule ligand 6 nM; read-out: PCAF IC50
Procedure: IC50 Measurements for Inhibitors Using PCAF AlphaLisa Binding Assay
PCAF bromodomain binding and inhibition of the compounds disclosed herein was assessed by monitoring the engagement of biotinylated small molecule ligand (known to bind to the PCAF bromodomain) with the target using the AlphaLisa technology (Perkin-Elmer).

Chain of PCAF bromodomain (His/Flag epitope tagged PCAF719-832) (Q92831 719-832): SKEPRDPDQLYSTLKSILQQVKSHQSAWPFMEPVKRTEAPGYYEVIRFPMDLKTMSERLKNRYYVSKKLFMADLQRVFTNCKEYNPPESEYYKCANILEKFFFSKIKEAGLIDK

Row | SMILES | IC50
1 | Cn1ncc(NC2CCCN(c3ccccn3)C2)c(Cl)c1=O (stereo not drawn) [Example 9, 4-chloro-2-methyl-5-((1-(pyridin-2-yl)piperidin-3-yl)amino)pyridazin-3(2H)-one] | 403 nM
2 | Cc1cncc(CN2CCCC(Nc3cnn(C)c(=O)c3Cl)C2)c1 (stereo not drawn) [Example 53, 4-chloro-2-methyl-5-[[1-[(5-methyl-3-pyridyl)methyl]-3-piperidyl]amino]pyridazin-3-one] | 441 nM
3 | Cn1ncc(NC2CCCN(Cc3ncc[nH]3)C2)c(Cl)c1=O (stereo not drawn) [Example 48, 4-chloro-5-[[1-(1H-imidazol-2-ylmethyl)-3-piperidyl]amino]-2-methyl-pyridazin-3-one] | 379 nM
4 | Cn1ncc(NC2CCCN(Cc3ccccc3N3CCOCC3)C2)c(Cl)c1=O (stereo not drawn) [Example 47, 4-chloro-2-methyl-5-[[1-[(2-morpholinophenyl)methyl]-3-piperidyl]amino]pyridazin-3-one] | 921 nM
5 | Cn1ncc(N[C@@H]2CCCCN(Cc3ccccc3)C2)c(Cl)c1=O [Example 37, (R)-5-((1-benzylazepan-3-yl)amino)-4-chloro-2-methylpyridazin-3(2H)-one] | 972 nM
6 | Cn1ncc(NC2CCCN(Cc3ccccn3)C2)c(Cl)c1=O (stereo not drawn) [Example 33, 4-chloro-2-methyl-5-((1-(pyridin-2-ylmethyl)piperidin-3-yl)amino)pyridazin-3(2H)-one] | 1980 nM
7 | Cn1ncc(N[C@H]2CCCCN(Cc3ccccc3)C2)c(Cl)c1=O [Example 38, (S)-5-((1-benzylazepan-3-yl)amino)-4-chloro-2-methylpyridazin-3(2H)-one] | 3770 nM
8 | CN1CCC(Nc2cnn(C)c(=O)c2Cl)CC1 [Example 2, 4-chloro-2-methyl-5-((1-methylpiperidin-4-yl)amino)pyridazin-3(2H)-one] | 1220 nM
9 | Cc1nc(CN2CCCC(Nc3cnn(C)c(=O)c3Cl)C2)[nH]c1C (stereo not drawn) [Example 54, 4-chloro-5-[[1-[(4,5-dimethyl-1H-imidazol-2-yl)methyl]-3-piperidyl]amino]-2-methyl-pyridazin-3-one] | 1440 nM
10 | CN1[C@@H]2CC[C@H]1C[C@@H](Nc1cnn(C)c(=O)c1Cl)C2 [Example 5, 4-chloro-2-methyl-5-(((1R,3r,5S)-8-methyl-8-azabicyclo[3.2.1]octan-3-yl)amino)pyridazin-3(2H)-one] | 480 nM

Continued by falling IC50, values first:

Row | IC50 | SMILES
11 | 371 nM | Cn1cc(CN2CCCC(Nc3cnn(C)c(=O)c3Cl)C2)cn1 (stereo not drawn) [Example 51, 4-chloro-2-methyl-5-[[1-[(1-methylpyrazol-4-yl)methyl]-3-piperidyl]amino]pyridazin-3-one]
12 | 167 nM | CN1CC(Nc2cnn(C)c(=O)c2Cl)CC(c2ccccc2)C1 (racemic) [Example 24, 4-chloro-2-methyl-5-((1-methyl-5-phenylpiperidin-3-yl)amino)pyridazin-3(2H)-one]
13 | 62 nM | CN1CCCCC(Nc2cnn(C)c(=O)c2Cl)C1 (racemic) [Example 1, 4-chloro-2-methyl-5-((1-methylazepan-3-yl)amino)pyridazin-3(2H)-one]
14 | 60 nM | CC1CCC(Nc2cnn(C)c(=O)c2Cl)CN1C (stereo not drawn) [Example 25, 4-chloro-5-((1,6-dimethylpiperidin-3-yl)amino)-2-methylpyridazin-3(2H)-one]
15 | 48.5 nM | C[C@H]1CC[C@@H](Nc2cnn(C)c(=O)c2Cl)CN1C (stereo in doubt) [Example 29, 4-chloro-5-((1,6-dimethylpiperidin-3-yl)amino)-2-methylpyridazin-3(2H)-one]
